From US11071721B2, “Bicyclic amide compounds and methods of use thereof” (Genentech, Inc., priority 2016, dated 2021)

Target: human RIP1 kinase domain (2-375) (Homo sapiens (Human), UniProt Q13546)
Experiment: RIP1 kinase inhibition assay (Transcreener ADP biochemical enzyme assay)
Conditions: Ki app (Morrison tight-binding fit); 50 nM enzyme, 50 uM ATP, 2 hours incubation, fluorescence polarization
Method in brief: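 Baculovirus-expressed human RIP1 kinase domain (2-375), 50 nM, incubated 2 h with compound in pH 7.5 Hepes with 30 mM MgCl2, 1 mM DTT, 50 uM ATP, 0.5% DMSO. ADP detected by Transcreener fluorescence polarization (antibody/AlexaFluor 633 tracer displacement). Ki^app from Morrison tight-binding fit of fractional activity.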

Sequence of human RIP1 kinase domain (2-375) (Q13546 2-375): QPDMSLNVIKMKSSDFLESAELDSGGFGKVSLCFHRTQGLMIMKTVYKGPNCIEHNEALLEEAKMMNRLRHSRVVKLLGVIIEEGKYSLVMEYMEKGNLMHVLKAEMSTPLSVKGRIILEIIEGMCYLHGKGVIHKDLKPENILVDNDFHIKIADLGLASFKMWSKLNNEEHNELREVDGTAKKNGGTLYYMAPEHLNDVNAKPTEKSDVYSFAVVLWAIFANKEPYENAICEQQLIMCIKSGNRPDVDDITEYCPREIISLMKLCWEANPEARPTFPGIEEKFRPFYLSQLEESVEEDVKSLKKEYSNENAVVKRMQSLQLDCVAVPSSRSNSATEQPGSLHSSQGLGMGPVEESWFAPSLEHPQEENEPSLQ

Row | SMILES | Ki [µM]
1 | O=C(c1nc2n(n1)[C@@H](c1ccccc1)CC2)N1CC(F)(F)C1 (stereo in doubt) [Example 32, (3,3-difluoroazetidin-1-yl)-[rac-(5R)-5-phenyl-6,7-dihydro-5H-pyrrolo[1,2-b][1,2,4]triazol-2-yl]methanone] | 0.066
2 | O=C(c1nc2n(n1)[C@H](c1ccccc1)C[C@@H]2F)N1CCn2nccc2C1 (stereo in doubt) [Example 69, 6,7-dihydro-4H-pyrazolo[1,5-a]pyrazin-5-yl-[rac-(5S,7S)-7-fluoro-5-phenyl-6,7-dihydro-5H-pyrrolo[1,2-b][1,2,4]triazol-2-yl]methanone] | 0.052
3 | O=C(c1nc2n(n1)[C@H](c1ccccc1)C[C@@H]2F)N1CCC(F)(F)C1 (stereo in doubt) [Example 98, (3,3-difluoropyrrolidin-1-yl)-[rac-(5S,7S)-7-fluoro-5-phenyl-6,7-dihydro-5H-pyrrolo [1,2-b][1,2,4]triazol-2-yl]methanone] | 0.036
4 | O=C(c1cc2n(n1)CC[C@@H]2c1ccccc1)N1CC(F)(F)C1 [Example 9, (3,3-difluoroazetidin-1-yl)-[(4R)-4-phenyl-5,6-dihydro-4H-pyrrolo[1,2-b]pyrazol-2-yl]methanone] | 2.66
5 | CCC(F)(F)n1ncc2cnc(C(=O)N3CC(F)(F)C3)cc21 [Example 103] | 6.7

Now those with a lower Ki, led by results:

Row | Ki [µM] | SMILES
6 | 0.031 | O=C(c1nc2n(n1)[C@@H](c1ccccc1)C[C@H]2F)N1CCc2ccccc2C1 (stereo in doubt) [Example 76]
7 | 0.024 | O=C(c1nc2n(n1)[C@H](c1ccccc1)C[C@@H]2F)N1CCc2cccnc2C1 (stereo in doubt) [Example 74, 6,8-dihydro-5H-1,7-naphthyridin-7-yl-[rac-(5S, 7S)-7-fluoro-5-phenyl-6,7-dihydro-5H-pyrrolo [1,2-b][1,2,4]triazol-2-yl]methanone]
8 | 0.015 | O=C(c1nc2n(n1)[C@@H](c1ccccc1)C[C@H]2F)N1CCn2nccc2C1 (stereo in doubt) [Example 66, 6,7-dihydro-4H-pyrazolo[1,5-a]pyrazin-5-yl-[rac-(5R,7R)-7-fluoro-5-phenyl-6,7-dihydro-5H-pyrrolo[1,2-b][1,2,4]triazol-2-yl]methanone]
9 | 0.013 | O=C(c1nc2n(n1)[C@H](c1ccccc1)C[C@@H]2F)N1CCc2ccccc2C1 (stereo in doubt) [Example 99, 3,4-dihydro-1H-isoquinolin-2-yl-[rac-(5S,7S)-7-fluoro-5-phenyl-6,7-dihydro-5H-pyrrolo[1,2-b][1,2,4]triazol-2-yl]methanone]
10 | 0.011 | O=C(c1nc2n(n1)[C@@H](c1ccccc1)C[C@H]2F)N1CCC(F)(F)C1 (stereo in doubt) [Example 54, (3,3-difluoropyrrolidin-1-yl)-[rac-(5R,7R)-7-fluoro-5-phenyl-6,7-dihydro-5H-pyrrolo [1,2-b][1,2,4]triazol-2-yl]methanone]
11 | 0.009 | O=C(c1nc2n(n1)[C@H](c1ccccc1)C[C@@H]2F)N1CC(F)(F)C1 [Example 3, (3,3-difluoroazetidin-1-yl)-[(5S,7S)-7-fluoro-5-phenyl-6,7-dihydro-5H-pyrrolo[1,2-b][1,2,4]triazol-2-yl]methanone]
12 | 0.005 | O=C(c1nc2n(n1)[C@@H](c1ccccc1)C[C@H]2F)N1CCc2cccnc2C1 (stereo in doubt) [Example 67, 6,8-dihydro-5H-1,7-naphthyridin-7-yl-[rac-(5R,7R)-7-fluoro-5-phenyl-6,7-dihydro-5H-pyrollo[1,2-b][1,2,4]triazol-2-yl]methanone]
